# According to patent EP1806346B1, “Substituted piperazine compounds and their use as fatty acid oxidation inhibitors” (CV THERAPEUTICS, INC., priority 2002, dated 2004):
# Test system: Palmitoyl CoA oxidation
# Assay: Mitochondrial assay: palmitoyl CoA oxidation
# Type: biochemical
# Conditions: Rat heart mitochondria, 16 µM 1-14C palmitoyl CoA, 15 min at 30°C, 14C bicarbonate counted; read-out: PalmCoA IC50
# Description: Rat heart mitochondria were isolated by the method ofNedergard and Cannon (Methods in Enzymol. 55, 3, 1979).
# Palmitoyl CoA oxidation - The Palmityl CoA oxidation was carried out in a total volume of 100 µL containing the following agents: 110 mM KCl, 33 mM Tris buffer at pH 8, 2 mM KPi, 2 mM MgCl2, 0.1 mM EDTA, 14.7 µM defatted BSA, 0.5 mM malic acid, 13 mM carnitine, 1 mM ADP, 52 µg of mitochondrial protein, and 16 µM 1-14C palmitoyl CoA (Sp. Activity 60 mCi/mmole; 20 µCi/mL, using 5 µL per assay). The compounds of this invention were added in a DMSO solution at the following concentrations: 100 µM, 30 µM, and 3 µM. In each assay, a DMSO control was used. After 15 min at 30°C, the enzymatic reaction was centrifuged (20,000 g for 1 min), and 70 µL of the supernatant was added to an activated reverse phase silicic acid column (approximately 0.5 mL of silicic acid). The column was eluted with 2 mL of water, and 0.5 mL of the eluent was used for scintillation counting to determine the amount of ^14C trapped as ^14C bicarbonate ion.
row,SMILES,IC50
1,O=C(CN1CCN(C[C@@H](O)COc2ccc3oc(-c4ccccc4)nc3c2)CC1)Nc1cccc(Oc2ccccc2)c1,8500 nM
2,Cc1nc2cc(OC[C@H](O)CN3CCN(CC(=O)Nc4nc(-c5ccc(Cl)cc5)cs4)C[C@@H]3C)ccc2s1,400 nM
3,O=C(CN1CCN(C[C@@H](O)COc2ccc3oc(-c4ccccc4)nc3c2)CC1)Nc1ccc2ncccc2c1,6200 nM
4,Cc1nc2cc(OC[C@H](O)CN3CCN(CC(=O)Nc4ccc(Oc5ccccc5)cc4)CC3)ccc2s1,330 nM
5,CCn1c2ccccc2c2cc(NC(=O)CN3CCN(C[C@@H](O)COc4ccc5sc(C)nc5c4)CC3)ccc21,850 nM

# Other lines, results leading:
row,IC50,SMILES
1,7000 nM,Cc1nc2cc(OC[C@H](O)CN3CCN(CC(=O)Nc4nc(-c5ccc(Cl)cc5)cs4)CC3)ccc2s1
2,5200 nM,Cc1nc2cc(OC[C@H](O)CN3CCN(CC(=O)Nc4cccc5cccnc45)CC3)ccc2s1
3,15000 nM,Cc1nc2cc(OC[C@H](O)CN3CCN(CC(=O)Nc4cccc5c4CCC5)CC3)ccc2s1
4,80 nM,Cc1nc2cc(OC[C@H](O)CN3CCN(CC(=O)N[C@H]4CCCc5ccccc54)CC3)ccc2s1
5,4400 nM,Cc1nc2cc(OC[C@H](O)CN3CCN(CC(=O)N[C@@H](C)c4ccccc4)CC3)ccc2s1
6,850 nM,Cc1nc2cc(OC[C@H](O)CN3CCN(CC(=O)N[C@@H](C)c4ccc5ccccc5c4)CC3)ccc2s1
7,180 nM,Cc1nc2cc(OC[C@H](O)CN3CCN(CC(=O)Nc4cccc(-c5ccccc5)c4)CC3)ccc2s1
